Assay results from US20260022142A1, “MACROCYCLIC IMMUNOMODULATORS” (Bristol-Myers Squibb Company, priority 2022, published 2026).
pIC50: −log10 of the molar value. Numbered stars: 1 amine (or outer) side, 2 acyl side, 3 side chain; on linkers, the order of the positions; unused ones are H or OH. Bridge positions count the residues as written; N and C are the ends. Square brackets hold non-standard residues; d marks the D form. Peptide text beside a SMILES is read from it. * marks the point of attachment. ξ: configuration not given here. Phe(3-CF3) = N[C@@H](Cc1cccc(C(F)(F)F)c1)C(=O)O; Phe(4-COOH) = N[C@@H](Cc1ccc(C(=O)O)cc1)C(=O)O; Bip = N[C@@H](Cc1ccc(-c2ccccc2)cc1)C(=O)O; NH(CH2)14COOH = O=C(O)CCCCCCCCCCCCCCN*; Phe(3-Me) = Cc1cccc(C[C@H](N)C(=O)O)c1; βAsp = O=C(O)[C@H](CC(=O)[*:2])N[*:1]; NH(CH2)12COOH = O=C(O)CCCCCCCCCCCCN*; Val(3-OH) = CC(C)(O)[C@H](N)C(=O)O; 4Pal = N[C@@H](Cc1ccncc1)C(=O)O; 3Thi = N[C@@H](Cc1ccsc1)C(=O)O; Cha = N[C@@H](CC1CCCCC1)C(=O)O; Cit = NC(=O)NCCC[C@H](N)C(=O)O; Thr(3ξ) = CC(O)[C@H](N)C(=O)O; Carboxymethyl = O=C(O)C*; Orn = NCCC[C@H](N)C(=O)O; Pra = C#CC[C@H](N)C(=O)O; Aun = NCCCCCCCCCCC(=O)O; Dab = NCC[C@H](N)C(=O)O; Nva = CCC[C@H](N)C(=O)O; Dap = NC[C@H](N)C(=O)O; AEEA = NCCOCCOCC(=O)O; ξC = NC(CS)C(=O)O; Sar = CNCC(=O)O

These molecules were tested against T1, PD-1/PD-L1 interaction (PE-labeled human PD-L1-Ig binding to Jurkat cell line over-expressing human PD-1) (Homo sapiens, UniProt Q15116) (assay: Jurkat-PD-1 Cell Binding High-Content Screening Assay (CBA)). Details: Jurkat cell line over-expressing human PD-1; PE-labeled PD-L1-Ig 20 nM final; read-out: Jurkat hPD1-PDL1 IC50.
T1 construct: expressed in transfected cells; host or cells: Jurkat
T1 sequence (Q15116 25-288): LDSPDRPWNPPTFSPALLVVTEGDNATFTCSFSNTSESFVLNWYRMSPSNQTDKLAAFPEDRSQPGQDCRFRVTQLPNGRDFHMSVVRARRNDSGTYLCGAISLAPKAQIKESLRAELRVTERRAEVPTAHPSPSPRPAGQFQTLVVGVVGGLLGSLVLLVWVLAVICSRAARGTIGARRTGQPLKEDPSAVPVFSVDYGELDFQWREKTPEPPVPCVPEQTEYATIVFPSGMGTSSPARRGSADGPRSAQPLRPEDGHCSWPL
Format: cell-based
Method in brief: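 Binding of fluorescent PD-L1-Ig (20 nM final) to Jurkat-PD-1 cells was measured by automated imaging after 1 h, following a 2 h compound pre-treatment at 37° C.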

| pIC50 | SMILES |
| --- | --- |
| 6.73 | Cc1cccc(C[C@@H]2NC(=O)[C@H](CC(=O)O)NC(=O)[C@H](Cc3ccc(OCC(=O)O)cc3)NC(=O)[C@H](CN)NC(=O)CSC[C@@H](C(=O)N(C)CC(=O)N[C@@H](CCC(=O)O)C(=O)NCCCCCCCCCCC(=O)O)NC(=O)[C@H]([C@@H](C)O)NC(=O)[C@H](C(C)C)NC(=O)[C@H](CC3CCCCC3)NC(=O)[C@H](CCN)NC(=O)[C@@H](CC(C)C)NC(=O)[C@H](CCCN)NC(=O)[C@H](CCCNC(N)=O)NC(=O)[C@H](Cc3ccc(-c4ccccc4)cc3)NC(=O)[C@H](C(C)C)NC2=O)c1 [Compound 2839] ({CH2CO}-[Dap]Y(Carboxymethyl)D[Phe(3-Me)]V[Bip][Cit][Orn][dL][Dab][Cha]VTC[Sar]E[Aun]-OH; thioether N-14) |
| 8.17 | Cc1cccc(C[C@@H]2NC(=O)[C@H](CC(=O)O)NC(=O)[C@H](Cc3ccc(OCC(=O)O)cc3)NC(=O)[C@H](CN)NC(=O)CSC[C@@H](C(=O)N[C@@H](CC(=O)O)C(=O)NCCOCCOCC(=O)NCCCCCCCCCCC(=O)O)NC(=O)[C@H]([C@@H](C)O)NC(=O)[C@H](C(C)C)NC(=O)[C@H](CC3CCCCC3)NC(=O)[C@H](CCN)NC(=O)[C@@H](CC(C)C)NC(=O)[C@H](CCCN)NC(=O)[C@H](CCCNC(N)=O)NC(=O)[C@H](Cc3ccc(-c4ccccc4)cc3)NC(=O)[C@H](C(C)C)NC2=O)c1 [Compound 1036] ({CH2CO}-[Dap]Y(Carboxymethyl)D[Phe(3-Me)]V[Bip][Cit][Orn][dL][Dab][Cha]VTCD[AEEA][Aun]-OH; thioether N-14) |
| 8.31 | CCC[C@@H]1NC(=O)CSC[C@@H](C(=O)N[C@@H](CCN)C(=O)NCCOCCOCC(=O)NCCOCCOCC(=O)NCCCCCCCCCCCCC(=O)O)NC(=O)[C@H](CO)NC(=O)[C@H](C(C)(C)O)NC(=O)[C@H](CC2CCCCC2)NC(=O)[C@H](CCN)NC(=O)[C@@H](CC(C)C)NC(=O)[C@H](CCCN)NC(=O)[C@H](Cc2ccc(C(=O)O)cc2)NC(=O)[C@H](Cc2ccc(-c3ccccc3)cc2)NC(=O)[C@H](Cc2ccc(C(=O)O)cc2)NC(=O)[C@H](Cc2cccc(C)c2)NC(=O)[C@H](CC(=O)O)NC(=O)[C@H](Cc2ccc(OCC(=O)O)cc2)NC1=O [Compound 2883] ({CH2CO}-[Nva]Y(Carboxymethyl)D[Phe(3-Me)][Phe(4-COOH)][Bip][Phe(4-COOH)][Orn][dL][Dab][Cha][Val(3-OH)]SC[Dab][AEEA][AEEA]-{NH(CH2)12COOH}; thioether N-14) |
| 7.41 | CC(C)C[C@@H]1NC(=O)[C@H](Cc2c[nH]c3ccccc23)NC(=O)[C@H](CC(=O)O)NC(=O)[C@H](Cc2ccc(C(=O)O)cc2)NC(=O)[C@H](Cc2ccc(OCC(=O)O)cc2)NC(=O)CSC[C@@H](C(=O)NCCOCCOCC(=O)NCCCCCCCCCCC(=O)O)NC(=O)[C@H](CN)NC(=O)[C@H](C(C)C)NC(=O)[C@H](CC2CCCCC2)NC(=O)[C@H](CCN)NC(=O)[C@@H](CC(C)C)NC(=O)[C@H](CCCN)NC(=O)[C@H](Cc2ccc(O)cc2)NC(=O)[C@H](Cc2ccc(-c3ccccc3)cc2)NC1=O [Compound 1238] ({CH2CO}-Y(Carboxymethyl)[Phe(4-COOH)]DWL[Bip]Y[Orn][dL][Dab][Cha]V[Dap]C[AEEA][Aun]-OH; thioether N-14) |
| 6.60 | CC(C)C[C@H]1NC(=O)[C@H](CCCN)NC(=O)[C@H](Cc2ccc(C(=O)O)cc2)NC(=O)[C@H](Cc2ccc(-c3ccccc3)cc2)NC(=O)[C@H](Cc2ccc(C(=O)O)cc2)NC(=O)[C@H](Cc2cccc(C(F)(F)F)c2)NC(=O)[C@H](CC(=O)O)NC(=O)[C@H](Cc2ccc(OCC(=O)O)cc2)NC(=O)[C@H](Cc2ccc(OCC(=O)O)cc2)NC(=O)CSC[C@@H](C(=O)N[C@@H](CCN)C(=O)NCCCCCCCCCCCCCCC(=O)O)NC(=O)[C@H](CCC(=O)O)NC(=O)[C@H](C(C)C)NC(=O)[C@H](CC2CCCCC2)NC(=O)[C@H](CCN)NC1=O [Compound 3849] ({CH2CO}-Y(Carboxymethyl)Y(Carboxymethyl)D[Phe(3-CF3)][Phe(4-COOH)][Bip][Phe(4-COOH)][Orn][dL][Dab][Cha]VEC[Dab]-{NH(CH2)14COOH}; thioether N-14) |
| 7.66 | CC(C)C[C@H]1NC(=O)[C@H](CCCN)NC(=O)[C@H](C(C)C)NC(=O)[C@H](Cc2ccc(-c3ccccc3)cc2)NC(=O)[C@H](C(C)C)NC(=O)[C@H](Cc2c[nH]c3ccccc23)NC(=O)[C@H](CC(=O)O)NC(=O)[C@H](Cc2ccc(OCC(=O)O)cc2)NC(=O)[C@H](CN)NC(=O)CSC[C@@H](C(=O)N[C@@H](CCN)C(=O)NCCCCCCCCCCC(=O)O)NC(=O)[C@H](Cc2cnc[nH]2)NC(=O)[C@H](C(C)O)NC(=O)[C@H](CC2CCCCC2)NC(=O)[C@H](CCN)NC1=O (stereo partly drawn) [Compound 3652] ({CH2CO}-[Dap]Y(Carboxymethyl)DWV[Bip]V[Orn][dL][Dab][Cha][Thr(3ξ)]HC[Dab][Aun]-OH; thioether N-14) |
| 7.83 | C#CC[C@H](NC(=O)COCCOCCNC(=O)[C@H](CCN)NC(=O)[C@@H]1CSCC(=O)N[C@@H](Cc2ccncc2)C(=O)N[C@@H](Cc2ccc(OCC(=O)O)cc2)C(=O)N[C@@H](CC(=O)O)C(=O)N[C@@H](Cc2c[nH]c3ccccc23)C(=O)N[C@@H](C(C)C)C(=O)N[C@@H](Cc2ccc(-c3ccccc3)cc2)C(=O)N[C@@H]([C@@H](C)CC)C(=O)N[C@@H](CCCN)C(=O)N[C@H](CC(C)C)C(=O)N[C@@H](CCN)C(=O)N[C@@H](CC(C)C)C(=O)N[C@@H](C(C)C)C(=O)N[C@@H]([C@@H](C)O)C(=O)N1)C(=O)N[C@@H](CCN)C(=O)NCCCCCCCCCCC(=O)O [Compound 1194] ({CH2CO}-[4Pal]Y(Carboxymethyl)DWV[Bip]I[Orn][dL][Dab]LVTC[Dab][AEEA][Pra][Dab][Aun]-OH; thioether N-14) |
| 8.05 | CC[C@H](C)[C@@H]1NC(=O)[C@H](Cc2ccc(-c3ccccc3)cc2)NC(=O)[C@H](C(C)C)NC(=O)[C@H](Cc2cccc(C)c2)NC(=O)[C@H](CC(=O)O)NC(=O)[C@H](Cc2ccc(OCC(=O)O)cc2)NC(=O)[C@H](CN)NC(=O)CSCC(C(=O)NCCOCCOCC(=O)NCCCCCCCCCCC(=O)O)NC(=O)[C@H](CCCN)NC(=O)[C@H](C(C)C)NC(=O)[C@H](CC2CCCCC2)NC(=O)[C@H](CCN)NC(=O)[C@@H](CC(C)C)NC(=O)[C@H](CCCN)NC1=O (stereo partly drawn) [Compound 2648] ({CH2CO}-[Dap]Y(Carboxymethyl)D[Phe(3-Me)]V[Bip]I[Orn][dL][Dab][Cha]V[Orn][ξC][AEEA][Aun]-OH; thioether N-14) |
| 8.08 | Cc1cccc(C[C@@H]2NC(=O)[C@H](CC(=O)O)NC(=O)[C@H](Cc3ccc(OCC(=O)O)cc3)NC(=O)[C@H](CN)NC(=O)CSC[C@@H](C(=O)N[C@@H](C)C(=O)N[C@@H](CC(=O)NCCOCCOCC(=O)N[C@@H](CCC(=O)O)C(=O)NCCOCCOCC(=O)NCCCCCCCCCCC(=O)O)C(=O)O)NC(=O)[C@H]([C@@H](C)O)NC(=O)[C@H](C(C)C)NC(=O)[C@H](CC3CCCCC3)NC(=O)[C@H](CCN)NC(=O)[C@@H](CC(C)C)NC(=O)[C@H](CCCN)NC(=O)[C@H](CCCNC(N)=O)NC(=O)[C@H](Cc3ccc(-c4ccccc4)cc3)NC(=O)[C@H](C(C)C)NC2=O)c1 [Compound 1020] ({CH2CO}-[Dap]Y(Carboxymethyl)D[Phe(3-Me)]V[Bip][Cit][Orn][dL][Dab][Cha]VTCA[βAsp][AEEA]E[AEEA][Aun]-OH; thioether N-14) |
| 7.37 | CC(C)C[C@H]1NC(=O)[C@H](CCN)NC(=O)[C@H](C(C)C)NC(=O)[C@H](Cc2ccc(-c3ccccc3)cc2)NC(=O)[C@H](C(C)C)NC(=O)[C@H](Cc2c[nH]c3ccccc23)NC(=O)[C@H](CC(=O)O)NC(=O)[C@H](Cc2ccc(OCC(=O)O)cc2)NC(=O)[C@H](Cc2ccsc2)NC(=O)CSC[C@@H](C(=O)NCCOCCOCC(=O)NCCCCCCCCCCC(=O)O)NC(=O)[C@H](C(C)O)NC(=O)[C@H](C(C)C)NC(=O)[C@H](CC2CCCCC2)NC(=O)[C@H](CCN)NC1=O (stereo partly drawn) [Compound 3280] ({CH2CO}-[3Thi]Y(Carboxymethyl)DWV[Bip]V[Dab][dL][Dab][Cha]V[Thr(3ξ)]C[AEEA][Aun]-OH; thioether N-14) |
| 7.82 | Cc1cccc(C[C@@H]2NC(=O)[C@H](CC(=O)O)NC(=O)[C@H](Cc3ccc(OCC(=O)O)cc3)NC(=O)[C@H](CN)NC(=O)CSC[C@@H](C(=O)N[C@@H](CCN)C(=O)NCCCCCCCCCCC(=O)O)NC(=O)[C@H](CO)NC(=O)[C@H](Cc3cnc[nH]3)NC(=O)[C@H](CC3CCCCC3)NC(=O)[C@H](CCN)NC(=O)[C@@H](CC(C)C)NC(=O)[C@H](CCCN)NC(=O)[C@H](Cc3ccc(OCC(=O)O)cc3)NC(=O)[C@H](Cc3ccc(-c4ccccc4)cc3)NC(=O)[C@H](Cc3ccc(OCC(=O)O)cc3)NC2=O)c1 [Compound 3696] ({CH2CO}-[Dap]Y(Carboxymethyl)D[Phe(3-Me)]Y(Carboxymethyl)[Bip]Y(Carboxymethyl)[Orn][dL][Dab][Cha]HSC[Dab][Aun]-OH; thioether N-14) |
| 7.48 | C#CC[C@H](NC(=O)COCCOCCNC(=O)[C@@H]1CSCC(=O)N[C@@H](Cc2ccncc2)C(=O)N[C@@H](Cc2ccc(OCC(=O)O)cc2)C(=O)N[C@@H](CC(=O)O)C(=O)N[C@@H](Cc2c[nH]c3ccccc23)C(=O)N[C@@H](C(C)C)C(=O)N[C@@H](Cc2ccc(-c3ccccc3)cc2)C(=O)N[C@@H]([C@@H](C)CC)C(=O)N[C@@H](CCCN)C(=O)N[C@H](CC(C)C)C(=O)N[C@@H](CCN)C(=O)N[C@@H](CC(C)C)C(=O)N[C@@H](C(C)C)C(=O)N[C@@H]([C@@H](C)O)C(=O)N1)C(=O)N[C@@H](CCN)C(=O)NCCCCCCCCCCC(=O)O [Compound 1212] ({CH2CO}-[4Pal]Y(Carboxymethyl)DWV[Bip]I[Orn][dL][Dab]LVTC[AEEA][Pra][Dab][Aun]-OH; thioether N-14) |
